The inhibition is the change of the read-out against control, counted positive when it falls. Usually IC50 stands for the concentration that gives 50% inhibition. Broadly, the Ki is a dissociation constant, usually derived from enzyme kinetics or from competition with a known ligand. For orientation: AUC means concentration integrated over time. The low end stands for less exposure, the high end for more exposure. As usually defined, the % Inhibition is the change of the read-out against control, counted positive when it falls. A lower % Inhibition goes with little suppression.

Values joined by “and” are separate entries in the source; they are usually repeats but may differ in a detail not shown here. Equal entries are not always repeated. Where two headings read alike, the source gives them in different places.

The text below walks through data of patent EP1614683B1, “Indazole compounds and pharmaceutical compositions for inhibiting protein kinases, and methods for their use” (priority 1999, dated 2001).

One series can be described thus: in vitro. The format is in vitro ADME, human. Conditions: 2 h. A digest of the protocol: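 HLM diluted to 5 mg/mL in 100 mM KPO4, preincubated 10 min at 37 °C with NADPH-regenerating system. Compound (5 µM final) incubated at 37 °C in triplicate, sampled at 0 and 2 h into ice-cold acetonitrile, then LC-MS analysis.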
Series [1] concerns the target T1, unphosphorylated VEGF-R2Δ50 (Homo sapiens, UniProt P35968, DEL940-989/E990V). Conditions: Table 1; for FLVK ** (% inhibition): compound concentration 50 nM; for Ki: read-out: FLVK ** (Ki).
A further series addresses human FGF-R1 (Homo sapiens, UniProt P11362, C488A/C584S/L457V). As to the kind of experiment: FGF-R spectrophotometric assay. The series is classed as biochemical. To be noted: Table 1; for inhibition at 1 µM: read-out: FGF-P* (% inhibition). On the procedure: The spectrophotometric assay was carried out as described above for VEGF-R2, except for the following changes in concentration: FGF-R = 50 nM, ATP = 2 mM, and poly(E4Y1) =15 mM.

For another series, the target named is LCK tyrosine kinase (Homo sapiens, UniProt P06239, C224D/P223M). As to the kind of experiment: LCK spectrophotometric assay. Conditions: Table 1, compound concentration 1 µM; for inhibition at 1 µM: read-out: Lck-P* (% inhibition). The format is biochemical. How it is done:
The spectrophotometric assay was carried out as described above for VEGF-R2, except for the following changes in concentration: LCK = 60 nM, MgCl2 = 0 mM, poly(E4Y1) = 20 mM.

Series [2] has as its system lung cancer cells (line MV522). As to the kind of experiment: Cancer cell proliferation (MV522) assay. The series is classed as cell-based. To be noted: MV522; Table 1; read-out: MV522 IC50. In a few lines:
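MTT reduction read-out was taken 72 h after addition of test agents, with no prior serum starvation. Cells were plated beforehand at two thousand per well in RPMI1640 containing 10% FBS and 2 mM glutamine and allowed one day to adhere.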

Series [3] has as its target T1, unphosphorylated VEGF-R2Δ50. Nature of the series: biochemical.
Series [4] deals with phosphorylated VEGF-R2Δ50 (Homo sapiens, UniProt P35968, DEL940-989/E990V). As to the kind of experiment: biochemical. Conditions: for inhibition at 1 µM: read-out: FLVK-P* (% inhibition); for inhibition at 0.05 µM: read-out: FLVK -P** (% inhibition).
The target in another series is T2, human CHK1 (FL-CHK1) (Homo sapiens, UniProt O14757).
T2 construct: C-terminally His-tagged full-length human CHK1 (FL-CHK1) was expressed using the baculovirus/insect cell system; made in house; host or cells: baculovirus/insect cell system
T2 sequence (O14757 1-476): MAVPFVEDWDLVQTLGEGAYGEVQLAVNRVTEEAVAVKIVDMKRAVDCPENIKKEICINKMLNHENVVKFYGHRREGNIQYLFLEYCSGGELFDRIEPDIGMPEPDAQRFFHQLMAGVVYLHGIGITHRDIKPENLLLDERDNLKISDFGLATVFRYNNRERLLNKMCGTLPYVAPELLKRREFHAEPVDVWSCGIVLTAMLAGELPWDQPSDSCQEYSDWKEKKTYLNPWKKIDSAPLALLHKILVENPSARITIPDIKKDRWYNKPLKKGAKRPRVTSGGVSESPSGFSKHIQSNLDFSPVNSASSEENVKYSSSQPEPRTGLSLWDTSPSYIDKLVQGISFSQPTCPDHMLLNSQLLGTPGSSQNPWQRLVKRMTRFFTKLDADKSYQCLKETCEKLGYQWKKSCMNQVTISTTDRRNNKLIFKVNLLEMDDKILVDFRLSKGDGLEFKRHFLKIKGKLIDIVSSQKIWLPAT
Nature of the series: CHK1 coupled spectrophotometric assay. The format is biochemical. To be noted: for inhibition at 1 µM: read-out: CHK1* (% inhibition). A digest of the protocol:
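His-tagged full-length human CHK1 from baculovirus/insect cells, 10 nM, phosphorylating Syntide-2. ADP formation coupled via PK/LDH with PEP to NADH oxidation, followed as absorbance decrease at 340 nm. Ki from initial rates at varying compound concentrations.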

In series [5] the test system is human umbilical vein endothelial cells (HUVEC). Nature of the series: HUVEC proliferation assay (VEGF-stimulated, MTT). The series is classed as cell-based. Conditions: Table 1.
For series [6] the following is noted: mouse, in vivo, pH 2.3.
Series [7] addresses T3, CDK4/Cyclin D3 complex (Homo sapiens, UniProt P11802). To be noted: read-out: CDK4* (Ki), Table 2.
Another series has as its target T4, human FAK (FAKcd409) (Homo sapiens, UniProt Q05397, P410T).
T4 construct: comprises residues methionine 409 to glutamate 689; made in house; host or cells: baculovirus vector expression system (insect cells)
Nature of the series: FAK fluorescence polarization assay. The series is classed as biochemical. To be noted: read-out: % Inhibition @ 1 µM FAK. On the procedure:
FAK Construct for Assay. The catalytic domain of human FAK (FAKcd409) was expressed using the baculovirus vector expression system. […] The protein was purified using classical chromatography techniques.
FAK HTS utilized the fluorescence polarization assay provided by LJL Biosystems. The kinase reaction contained: 100mM Hepes pH 7.5, 10mM MgCl2, 1mM DTT, 1mM ATP, and 1mg/ml poly Glu-Tyr (4: 1). The reaction is initiated by the addition of 5nM FAKcd409. The reaction is terminated by the addition of EDTA followed by addition of fluor-labelled peptide and anti-phosphotyrosine antibody, both provided by LJL Biosystems. Inhibition results are read on a Analyst (LJL) detector.
(Fluorescence polarisation rises when a labelled molecule tumbles more slowly, as on binding a larger partner.)

A further series in a line: in vivo. To be noted: mouse, plasma, pH 2.3.
The target of series [8] is T3, CDK4/Cyclin D3 complex. As to the kind of experiment: biochemical. To be noted: read-out: CDK4 * (% inhibition).
Series [9] has as its system VEGF dependent retinal vascular development. As to the kind of experiment: In vivo assay of retinal vascular development in neonatal rats. Set-up: species or system rat. To be noted: vehicle PEG/water 70:30. A digest of the protocol: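 Neonatal rats given compound by intravitreal injection, vehicle usually 50% PEG 400/50% 300 mM sucrose, with vehicle in contralateral eye. Retinas removed six days later, ADPase-stained and flat-mounted; stained vessel area quantified by imaging and expressed as percent regression versus vehicle eye.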

Series [10] has as its system VEGF dependent retinal neovascularization. Nature of the series: Neonatal rat model of retinopathy of prematurity. To be noted: Model ROP, intravitreal, vehicle PEG/water 70:30. The format is in vivo.
The mark [11] stands for this setting: Homo sapiens, HUVEC, + albumin, read-out: HUVEC + albumin IC50.
Setting [12] is: Homo sapiens, HUVEC, read-out: HUVEC IC50.
The mark [13] stands for this setting: human liver microsomes, 5 µM test compound, 37 °C.

Sequence of human FGF-R1 (P11362 456-766 L457V/C488A/C584S): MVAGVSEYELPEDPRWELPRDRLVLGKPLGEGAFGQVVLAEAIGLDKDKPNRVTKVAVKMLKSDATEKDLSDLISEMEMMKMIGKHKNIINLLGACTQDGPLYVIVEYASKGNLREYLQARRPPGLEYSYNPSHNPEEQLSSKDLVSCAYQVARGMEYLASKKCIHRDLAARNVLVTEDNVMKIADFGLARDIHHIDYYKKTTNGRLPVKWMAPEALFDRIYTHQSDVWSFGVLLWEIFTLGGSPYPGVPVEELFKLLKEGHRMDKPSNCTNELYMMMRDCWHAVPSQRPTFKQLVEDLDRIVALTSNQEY
Sequence of LCK tyrosine kinase (P06239 223-509 P223M/C224D): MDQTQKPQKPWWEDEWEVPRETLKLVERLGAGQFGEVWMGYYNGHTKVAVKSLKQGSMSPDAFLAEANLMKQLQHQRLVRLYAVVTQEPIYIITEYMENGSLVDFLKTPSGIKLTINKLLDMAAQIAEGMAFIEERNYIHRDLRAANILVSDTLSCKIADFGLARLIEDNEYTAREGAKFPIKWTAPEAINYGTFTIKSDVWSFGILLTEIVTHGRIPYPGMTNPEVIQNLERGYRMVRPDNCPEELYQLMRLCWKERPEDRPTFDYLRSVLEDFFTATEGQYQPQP
Sequence of phosphorylated VEGF-R2Δ50 (P35968 with tags, fused parts or gaps DEL940-989/E990V limits assumed): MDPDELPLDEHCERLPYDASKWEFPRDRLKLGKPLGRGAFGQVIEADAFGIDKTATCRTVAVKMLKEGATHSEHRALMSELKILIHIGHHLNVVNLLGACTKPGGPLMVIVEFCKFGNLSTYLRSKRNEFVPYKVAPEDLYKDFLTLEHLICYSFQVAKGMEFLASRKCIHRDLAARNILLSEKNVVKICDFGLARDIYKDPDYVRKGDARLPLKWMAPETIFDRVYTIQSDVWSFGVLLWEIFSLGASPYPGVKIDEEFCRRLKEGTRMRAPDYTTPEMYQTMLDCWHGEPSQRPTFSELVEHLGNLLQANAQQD
T1 sequence (P35968 with tags, fused parts or gaps DEL940-989/E990V limits assumed): as above
T3 sequence (P11802 whole entry): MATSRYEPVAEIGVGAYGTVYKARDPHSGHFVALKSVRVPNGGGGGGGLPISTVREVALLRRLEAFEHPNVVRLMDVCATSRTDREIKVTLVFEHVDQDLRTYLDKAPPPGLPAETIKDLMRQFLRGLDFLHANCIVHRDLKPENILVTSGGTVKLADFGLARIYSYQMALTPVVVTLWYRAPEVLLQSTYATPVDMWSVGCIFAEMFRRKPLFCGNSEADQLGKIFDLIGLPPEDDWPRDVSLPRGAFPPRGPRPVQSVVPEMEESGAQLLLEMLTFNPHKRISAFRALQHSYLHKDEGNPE
T3 sequence (P30281 whole entry partner): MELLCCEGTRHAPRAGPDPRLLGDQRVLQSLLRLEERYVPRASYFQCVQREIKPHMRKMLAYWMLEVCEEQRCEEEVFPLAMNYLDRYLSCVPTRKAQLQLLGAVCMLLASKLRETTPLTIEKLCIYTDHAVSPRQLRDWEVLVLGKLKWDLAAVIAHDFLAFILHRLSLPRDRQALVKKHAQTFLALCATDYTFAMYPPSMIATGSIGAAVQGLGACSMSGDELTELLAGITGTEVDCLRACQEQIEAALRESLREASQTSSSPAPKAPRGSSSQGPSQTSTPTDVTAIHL
T4 sequence (Q05397 409-689 P410T): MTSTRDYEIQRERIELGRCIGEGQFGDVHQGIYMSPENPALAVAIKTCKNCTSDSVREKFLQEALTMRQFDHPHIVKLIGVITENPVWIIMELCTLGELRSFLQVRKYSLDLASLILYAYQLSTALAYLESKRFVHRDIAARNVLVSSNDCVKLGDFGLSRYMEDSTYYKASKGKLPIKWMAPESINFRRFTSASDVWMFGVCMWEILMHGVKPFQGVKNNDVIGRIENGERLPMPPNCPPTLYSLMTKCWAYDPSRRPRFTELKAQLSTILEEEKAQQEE

“6-[2-((4-Aminobenzyl)methylcarbamoyl)phenylsulfanyl]-3-E-[2-(pyridin-2-yl)ethenyl]-1H-indazole [Reference Example 35(I)]”: the “% remain (HLM, 2 h)” value in “in vitro” (human, microsomes, 5 µM) is listed as 5%. Besides, the “FLVK ** (% inhibition)” value in [1] (listed as 35(l), 0.05 µM) was 100% and 99%.
Regarding `CC(=O)NC(C(=O)Nc1cccc(C(=O)c2ccc3c(/C=C/c4ccccc4)n[nH]c3c2)c1)c1ccccc1` (stereo not shown) [19(i), 6-[3-(2-acetamido-2-phenylacetamido)benzoyl]-3-E-styryl-1H-indazole], the inhibition at 1 µM on human FGF-R1 (compound concentration 1 µM) was determined as 88%; at LCK tyrosine kinase, 36%. Also, the concentration for half-maximal inhibition (IC50) in [2] is 3800 nM. For the same compound, the Ki in series [3] stood at 0.72 nM; in series [4] it was 4.7 nM.
Take `CCc1cc(O)ccc1-c1ccc2c(-c3nc4ccccc4[nH]3)n[nH]c2c1` [24(e), 3-1H-Benzoimidazol-2-yl-6-(2-ethyl-4-hydroxyphenyl)-1H-indazole]: the inhibition at 1 µM is 75% on human CHK1 (FL-CHK1) (Table 2, compound concentration 1 µM, NI = no significant inhibition) and 52% in series [4].
For `Oc1ccc(-c2ccc3c(-c4nc5ccccc5[nH]4)n[nH]c3c2)c(O)c1` [24(f), 3-1H-Benzoimidazol-2-yl-6-(2,4-dihydroxyphenyl)-1H-indazole], the inhibition at 1 µM at human CHK1 (FL-CHK1) was determined as 97%; in [4], 89%.
As for `NNC(=O)c1ccccc1Sc1ccc2c(C=Cc3ccccn3)n[nH]c2c1` [35(il)], the “FLVK ** (% inhibition)” value in series [1] is recorded as 44%.
`O=C(c1cccc(NC(=O)c2ccccn2)c1)c1ccc2c(/C=C/c3ccccn3)n[nH]c2c1` [41 (aa)]: the “FGF-P* (% inhibition)” value on human FGF-R1 (compound concentration 1 µM) is recorded as 37%. The “Lck-P* (% inhibition)” value on LCK tyrosine kinase amounted to 49%. Besides, the IC50 in series [5] (read-out: HUVEC IC50) is 1 nM. Besides, in “in vitro” (human, microsomes, 5 µM), the “% remain (HLM, 2 h)” value came to 100%. For the same compound, the Ki in series [1] was 0.11 nM. For the same compound, the AUCleast in series [6] (ip, 25 mg/kg) came to 6659 ng·h/mL; in [6] (po, 50 mg/kg), 289 ng·h/mL. Also, the T1/2 in series [6] (ip, 25 mg/kg) amounted to 2.1 h; in [6] (po, 50 mg/kg) it was 0.9 h. Also, in series [6] (po, 50 mg/kg, 7 h), the “Cmin (7 hr conc.)” value worked out at 5 ng/mL.
Regarding `CCn1nc(C)cc1C(=O)Nc1cc(C(=O)c2ccc3c(/C=C/c4ccccn4)n[nH]c3c2)c(C)cc1C` [41(11)], the Ki on human FGF-R1 (read-out: FGF-P* (Ki)) worked out at 11 nM. Also, at LCK tyrosine kinase, the “Lck-P* (% inhibition)” value is reported as 18%. Also, the “% remain (HLM, 2 h)” value in “in vitro” (human, microsomes, 5 µM) is on record as 85%. In addition, in [1], the “FLVK ** (% inhibition)” value was found to be 57%.
`O=C(Nc1cccc(C(=O)c2ccc3c(/C=N/n4cnnc4)n[nH]c3c2)c1)c1ccccc1` [Example 42(e), 6-(3-benzamidobenzoyl)-3-E-[N-(4H-1,2,4-triazol-4-yl)iminomethyl]-1H-indazole]: the Ki in series [1] is 1.1 nM.
Turning to `CCOCc1cc(O)c(OC)cc1-c1ccc2c(-c3nc4ccccc4[nH]3)n[nH]c2c1` [Reference Example 24(l), 3-1H-Benzoimidazol-2-yl-6-(2-(ethoxymethyl)-5-methoxy-4-hydroxy-phenyl)-1H-indazole], the inhibition at 20 µM at human CHK1 (FL-CHK1) (read-out: CHK1* (% inhibition @ 20 µM)) came out at 62%. The Ki came to 13 nM at CDK4/Cyclin D3 complex [7] and 71 nM on CDK4/Cyclin D3 complex [7] (listed as 24(1)).
As to `CNC(=O)c1ccccc1Sc1ccc2c(/C=C/c3ccccn3)n[nH]c2c1` [Reference Example 33(a), 6-[2-(methylcarbamoyl)phenylsulfanyl]-3-E[2-(pyridin-2-yl)ethenyl]indazole], the results for the inhibition at 1 µM on human FAK (FAKcd409) and at CDK4/Cyclin D3 complex [8] were 12% and 7%, respectively. The “% remain (HLM, 2 h)” value in “in vitro” (human, microsomes, 5 µM) was 29%. Besides, the AUC in “in vivo” (ip, 25 mg/kg) is 13800 ng·h/mL; in the series “in vivo” (po, 50 mg/kg), 19100 ng·h/mL. Also, in series [4], the inhibition at 0.05 µM was determined as 42%.
On to `O=C(NC1CC1)c1ccccc1Sc1ccc2c(/C=C/c3ccccn3)n[nH]c2c1` [Reference Example 33(e), 6-[2-(cyclopropylcarbamoyl)phenylsulfanyl]-3-E-[2-(pyridin-2-yl)ethenyl]-1H--1H-indazole], for which the inhibition at 1 µM amounted to 68% on human FGF-R1 (compound concentration 1 µM) and 2% at LCK tyrosine kinase. Also, the IC50 stood at 5 nM in [5] (setting [11]) and 0.46 nM in [5] (setting [12]). In the series “in vitro” (setting [13]), the “% remain (HLM, 2 h)” value was 54%. For the same compound, in [9] (Model P8, intravitreal, 5 mg/ml), the “% Inhibition” value came to 22%. Moreover, the inhibition at 0.05 µM in [4] turned out to be 70%.
Take `C/C=C/C(=O)Nc1cccc(C(=O)c2ccc3c(/C=C/c4ccccn4)n[nH]c3c2)c1` [Reference Example 41(c), 6-(3-crotonylamidobenzoyl)-3-E-[2-(pyridio-2-yl)ethenyl]-1H-indazole]: the inhibition at 1 µM on human FGF-R1 (compound concentration 1 µM) came to 77%; at LCK tyrosine kinase, 36%. The IC50 came out at 5.3 nM in [5] (setting [11]) and 0.4 nM in series [5] (setting [12]). Moreover, the “% remain (HLM, 2 h)” value in the series “in vitro” (setting [13]) is 68%. Moreover, in series [4], the inhibition at 0.05 µM turned out to be 83%.
In the case of `O=C(Nc1cccc(C(=O)c2ccc3c(/C=C/c4ccccn4)n[nH]c3c2)c1)c1ccccc1` [Reference Example 42(a), 6-(3-Benzamidobenzoyl)-3-E-[2-(pyridin-2-yl)ethenyl]-1H-indazole], the IC50 was determined as […] in [5] (setting [11]) and 5500 nM in series [2]. Further, the “% remain (HLM, 2 h)” value in “in vitro” (setting [13]) stood at 92%. The “% Inhibition” value in series [9] (Model P6-P10, IP*) is 61%; in series [9] (Model P9, intravitreal, 10 mg/ml), 55%; in series [10] (1 mg/ml), 1%; in series [10] (10 mg/ml), 23%. Further, in [10] (1 mg/ml), the “Initial Evaluation” value is “+ (one plus being detectable regression judged to be approximately 25 percent or less)”. In series [4], the inhibition at 0.05 µM was 79%.
